Patent publication US9415007B2, “Cyanocobalamin low viscosity aqueous formulations for intranasal delivery” (PAR PHARMACEUTICAL INC., priority 2003, dated 2016)

How the values were obtained:
[1] = Uptake of Vitamin B12 into cerebrospinal fluid after intranasal and intramuscular administration; type: in vivo, human; settings: intranasal administration compared with intramuscular injections
Text: We conducted a non-blinded, single dose, parallel group study to compare the uptake of Vitamin B12 into the cerebrospinal fluid (CSF) after intranasal and intramuscular administration in healthy male and non-pregnant female volunteers. This study compared CSF levels to plasma levels produced by both formulations.
Thirty-six healthy male and non-pregnant female subjects, age 18 and over, were enrolled in the study. Eighteen subjects received a single intranasal dose of 500 mcg delivered as a 0.1 mL spray and eighteen subjects received a single intramuscular dose of 100 mcg delivered intramuscularly. Each subject visited the clinical site three times in a one-month period. These visits consisted of a screening visit, one dosing visit and a final visit.
After each dosing, each subject underwent lumbar puncture only once, with the retrieval of a total 4.0 mL of CSF (4 tubes, 1.0 mL per tube).
In addition to the above, on the day of dosing 7 mL blood samples were drawn before dosing and post dosing at 5, 10, 15 and 20 minutes, and at 0.5, 1, 1½, 2, 3, 4, 6, and 8 hours post-dose (prior to discharge).
The cerebrospinal fluid was evaluated for total Vitamin B12 content. […]
The levels of vitamin B12 were determined in both the CSF and blood serum using Vitamin B12 concentrations in the CSF will be analyzed for Qualitative determination of Vitamin B12 using a validated TOSOH Nex. […]

[2] = prior art (Merkus); not soluble at concentrations greater than; cited from earlier work

In the case of “5,6-dimethyl-benzimidazolyl cyanocobamide [vitamin B12]”, the “ratio of vitamin B12 (CSF) to serum, intranasal versus intramuscular” value [1] is given as “higher” and the “solubility in an aqueous solution” value [2] is given as ≤ 1%.
